{
  "source": "patent US6537577B1",
  "about": "“Method of prophylaxis for bovine mastitis” (Bio Medical Development Corporation, priority 2001, dated 2003)",
  "key": {"Staph. aureus ATCC 29740 [1]": {"system": "Staph. aureus ATCC 29740", "test": "Excised teat study, Trial 1", "type": "cell-based, Staphylococcus aureus", "experimental": "(§1) Teats were prepared as described earlier. The pathogen strains that were used for this study were Staph. aureus ATCC 29740 and Strep. Agalactiae ATCC 27956. A culture of Strep. Agalactiae was prepared by thawing a frozen vial of Strep. Agalactiae and plating on a TSA blood plate. After 24 hours incubation at 37° C., five 6-ml tubes of TSB were inoculated with approximately six colonies of Strep. Agalactiae each. These cultures were incubated at 37° C. for approximately 16 hours and then used to inoculate 250 ml of TSB. This culture was incubated on a gyratory shaker for approximately 5.5 hours. Serial dilutions were prepared in proteose peptone, and 0.1 ml was plated on TSA. Plates were incubated for 24 hours at 37° C. and colonies were counted to determine the microbial concentration of the stock suspension.\n(§2) The dilution required to prepare a challenge inoculum of approximately 1×10^8 colony-forming units (cfu)/ml of Staph. aureus or Strep. […] Challenge suspensions of Staph. aureus and Strep. Agalactiae containing approximately 1×10^8 cfu/ml of each organism (diluted with pasteurized milk) were prepared and used for the excised teat trials. The quenching solution was letheen broth (Difco Laboratories) modified to contain 1% sodium thiosulfate (Sigma Chemical Co., St. Louis, Mo.).\n(§3) Agalactiae, respectively. […] Teats were dipped in the bacterial challenge suspensions once to a depth of approximately 15 mm and allowed to drain for 5 minutes, then dipped with the test products to a depth of approximately 30 mm and drained for an additional 10 minutes. For the challenged, but undipped negative control teats, the drainage time was 15 minutes. […] This coating film peeling from each teat was placed in sterile blood dilution vials (Baxter Diagnostics). Remaining organisms on teat skin were then removed by rinsing each teat with approximately 5 ml of quencher expressed from a polyethylene wash bottle into the same vial containing the coating film peeling. Each vial was vortexed for 5 seconds before plating.\n(§4) For all three trials, serial dilutions of peelings or rinses were made in 0.1% proteose peptone, and platinf was in 0.1-ml aliquots on Mannitol Salt agar (Becton Dickinson) for Staph. aureus and TKT/FC agar (Bccton Dickinson) with 0.3% thallium acetate (Sigma Chemical Co.) for Strep. Agalactiae. […] Plates were incubated for 24 hours at 37° C. and colonies were counted. The geometric mean count of the plates was determined, multiplied by […] to express the total volume of rinse, and then multiplied by the dilution factor to yield the total cfu per teat. In cases in which no organisms were recovered from a teat, the value of 0.01 was substituted fro zero in order statistically determine the mean cfu counts.\n(§5) The same set of teats was used for each trial. […]"}, "[2]": {"system": "Strep. Agalactiae ATCC 27956", "test": "Excised teat study, Trial 2", "type": "cell-based, Streptococcus agalactiae", "experimental": "as §1, §2, §3, §4, §5"}, "Staph. aureus ATCC 29740 [3]": {"system": "Staph. aureus ATCC 29740", "test": "Excised teat study, preliminary trial", "type": "cell-based, Staphylococcus aureus", "conditions": "for colony count per plate: plates 1-2, count no. 1 and 2", "from_the_text": "To evaluate the microbicidal activity of the compositions of EXAMPLE 1 and EXAMPLE 2, basic excised teat models used for these experiments are based on providing procedures by Twomey, A, and M. A Arnold, National Dairy Lab. Report, Ruaburn Agric. Res. Center, Hamilton, New Zealand.\nExcess skin and tissue were trimmed, teats were washed in a mild detergent and warm water, rinsed in water, dried, and dipped in 70% ethyl alcohol. Teats were placed in plastic bags in a glycerin and water solution, and subsequently frozen at −20° C. until further use. Frozen teats were thawed in warm water, rinsed in water, dried, and dipped in 70% ethyl alcohol, dried with paper towels, and suspended by metal clips from a glass rod.\nThe pathogen strain that was used for this study was Staph. aureus ATCC 29740. For preparation of Staph. aureus, five 6-ml tubes of trypticase soy broth (TSB) (Becton Dickinson, Cockeysville, Md.) were inoculated from a culture of Staph. aureus actively growing on trypticase soy agar (TSA) (Becton Dickinson) containing 5% bovine calf blood. These tubes were incubated for 5 to 7 hours at 37° C., and this culture was used to inoculate 250 ml of TSB, which was incubated on a gyratory shaker for 16 hours. After incubation, bacterial cells were pelleted by centrifugation at approximately 7000×g, washed twice in 0.1% proteose peptone (Difco Laboratories, Detroit, Mich.), and resuspended to approximately 200 ml in proteose peptone. Serial dilutions were prepared in proteose peptone, and 0.1 ml was plated on TSA. Plates, were incubated for 24 hours at 37° C. and colonies were counted to determine the microbial concentration of the stock suspension.\nChallenge suspensions of Staph. aureus containing approximately 1×10^8 cfu/ml of each organism (diluted with pasteurized milk) were prepared and used for the excised teat trials. The quenching solution was letheen broth (Difco Laboratories) modified to contain 1% sodium thiosulfate (Sigma Chemical Co., St. Louis, Mo.).\nTeats were dipped in a Staph. aereus bacterial suspension to a depth of 15 mm and allowed to drain for 5 minutes. Teats were then dipped into two coating formulations of EXAMPLE 1 and EXAMPLE 2, (Formula No. 3 and Formula No. 5, respectively) to a depth of approximately 30 mm and allowed to drain for 10 minutes. […] The coating was then removed from each teat using a sterile cotton swab by rolling the edge of the softened film using a downward motion toward the teat apex, placed in 5 ml of quencher in sterile blood dilution vials (Baxter Diagnostics, McGaw Park, Ill.), mixed by vortexing for 5 seconds, and after serial dilution, a 0.1-ml aliquot was plated onto TSA. The quenching solution (Bacto-Letheen Broth) was used to inactivate the chlorhexidine germicide and prevent further bacterial killing upon culture. Immediately after the dried coating products were removed from the teats, each teat was rinsed to a total volume of 5 ml of quencher, the rinse collected in sterile blood dilution vials (Baxter Diagnostics) separate from the peelings, mixed by vortexing for 5 seconds, and after serial dilution, a 0.1-ml aliquot was plated to determine the number of organisms remaining on the teat after removal of the coating."}, "[4]": {"conditions": "log of total organisms recovered"}, "[5]": {"conditions": "of plate counts at the treatment's dilution"}, "[6]": {"conditions": "peeling and rinse combined, total cfu per teat"}},
  "note": "Values joined by “and” are separate entries in the source; they are usually repeats but may differ in a detail not shown here. Equal entries are not always repeated.",
  "data": [
    {"smiles": "CC(=O)O", "note": "[2.5% acetic acid, acetic acid]", "values": [
      {"measurement": "Log", "setting": "Staph. aureus ATCC 29740 [1]; [4]", "value": 6.66},
      {"measurement": "Geometric Mean", "setting": "Staph. aureus ATCC 29740 [1]; [5]", "value": 92.41},
      {"measurement": "Total organisms Recovered", "setting": "Staph. aureus ATCC 29740 [1]; [6]", "value": "4,620,500"},
      {"measurement": "Log reduction", "setting": "Staph. aureus ATCC 29740 [1]; versus negative control", "value": 0.76},
      {"measurement": "Log", "setting": "[2]; [4]", "value": 6.11},
      {"measurement": "Geometric Mean", "setting": "[2]; [5]", "value": 25.98},
      {"measurement": "Total organisms Recovered", "setting": "[2]; [6]", "value": "1,299,000"},
      {"measurement": "Log reduction", "setting": "[2]; versus negative control", "value": 0.93},
      {"measurement": "Total organisms Recovered", "setting": "Staph. aureus ATCC 29740 [3]", "value": "16,029,000"},
      {"measurement": "colony count per plate", "setting": "Staph. aureus ATCC 29740 [3]; Dilution −3", "value": "TNTC^1 and TNTC"},
      {"measurement": "colony count per plate", "setting": "Staph. aureus ATCC 29740 [3]; Dilution −4", "value": "327 and 268 and 460 and 262"},
      {"measurement": "Log", "setting": "Staph. aureus ATCC 29740 [3]; [4]", "value": 7.20},
      {"measurement": "Geometric Mean", "setting": "Staph. aureus ATCC 29740 [3]; of plate counts, dilution −4", "value": "320.58^3"},
      {"measurement": "Log reduction", "setting": "Staph. aureus ATCC 29740 [3]; versus negative control", "value": 0.44}
    ]}
  ]
}
